Where no end group is shown, it is not given here.
What was measured:
[1] = test system: hematopoietic stem cells in blood; test: Corneal epithelial burn model: HSC-CFU assay of blood cells; assay type: in vivo, New Zealand white rabbit; conditions: rabbit, alkali burn of cornea; 5 nmole/kg SP i.v. immediately and 24 hours after burning; without SP peak at five days; FIG. 5
Protocol: Ketalar (50 mg/ml, Yuhan Corporation) and Rompun (23.32 mg (Xylazine hydrochloride)/ml, Bayer Korea Corporation) were mixed in a rate of 2:1, and then total 900 μl (Ketalar 600 μl: Rompun 300 μl) was injected into muscles of rabbits (New Zealand white rabbit, Male, 2.5 kg, n=4). After the intramuscular injection, 300 μl (Ketalar 200 μl: Rompun 100 μl) of the same anesthetic drug was injected in the rabbit's ear vein.
A 6 mm paper disc fully wetted by 1N NaOH was contacted to a limbus part of rabbit's cornea for 10 seconds. After alkali burning, corneal epithelium was removed in a size of the paper disc. The rabbit's eyes were quickly washed with a physiological saline immediately after alkali burning. At the same time, 5 nmole/kg of SP dissolved in a physiological saline was intravenously injected, and then after 24 hours, was injected once more (immediately after burning and at 24 hours after burning). For the control, PBS with the same volume was injected (injection Volume: 1 ml).
Peripheral blood was collected from ear veins in 10 ml at one, three, five and seven days after alkali burning. […]
1×10^4 cells among the whole cells was used for HSC-CFU assay. […] The cells were cultured in the media for 2 weeks (5% CO2, 37° C.), the number of colonies was counted by using a microscope (Leica) and then the results were shown in FIG. 5.

[2] = test system: inflammatory cells in blood; test: Radiation-irradiating model: CBC of inflammatory cells in blood; assay type: in vivo, C57b1/6 mice; conditions: mice, 8 Gy, 5 nmole/kg SP i.v. one day before and immediately after irradiation, 4.5 hours after irradiation, vs group without SP
Protocol: (§1) 5 nmole/kg of SP dissolved in a physiological saline was injected to a tail vein of C57b1/6 mice (8 weeks, sex; male, n=4, Average weight; 20 g) one day before irradiation and immediately after irradiation. The irradiation was performed at 8 Gy radiation in a Gamma lay radiation irradiator (^137Cs, Atomic Energy of Canada, Mississauga, Canada). The mice were sacrificed at 4.5 hours and one day after irradiation, and then the blood was collected. The part of the blood was used for analyzing CBC (Complete Blood Count) and the remaining blood was used to isolate serum and then analyze cytokines
200 μl of mouse's blood was taken at 4.5 hours and one day after 8 Gy radiation; it was added to a vial including a small amount of EDTA and then analyzed for CBC. […] It was confirmed that SP has an effect of inhibiting an increase of inflammatory cells caused by irradiation.

IL-6 and TNFα = test: Radiation-irradiating model: inflammatory cytokines IL-6 and TNFα in serum (ELISA); assay type: in vivo, C57b1/6 mice; conditions: mice, 8 Gy, 5 nmole/kg SP i.v.
Protocol: as §1
(§2) IL-6 and TNFα that are well known as inflammatory cytokines were analyzed. Specific procedures were as follows: Serum samples stored in […] and reagents, controls, and standard proteins stored in a cold storage were taken out at a room temperature. 50 μl of diluted solution was put into each well; 50 μl of standard, control, and samples were added; well mixed by lightly tapping the plate; and then placed for 2 hours at a room temperature. […] After 30 minutes, 100 μl of stop codon was treated to stop the reaction; the optical density was measured at 450 nm; the amounts of cytokines were converted based on a protein conversion formula by a standard sample; and then the result was shown in FIG. 8. […]

IL-10 = test: Radiation-irradiating model: anti-inflammatory cytokine IL-10 in blood (ELISA); assay type: in vivo, C57b1/6 mice; conditions: mice, 8 Gy, 5 nmole/kg SP i.v., FIG. 9
Protocol: as §1
as §2, with “out” for “out at a room temperature. 50 μl of diluted solution was put into each well; 50 μl of standard, control, and samples were added; well mixed by lightly tapping the plate; and then placed for 2 hours”
IL-10 that is well known as an anti-inflammatory cytokine was analyzed with ELISA (R&D System) by using the same method as Example 2-2.

[3] = test system: regulatory T cells (CD4+, FoxP3+) and anti-inflammatory macrophage M2 (CD11b+, CD206+); test: Radiation-irradiating model: FACS of regulatory T cells and macrophage M2 in mesentric lymph nodes and small intestine; assay type: in vivo, C57b1/6 mice; conditions: mice, 8 Gy, SP i.v., 4.5 hours after irradiation
Protocol: as §1
The mice were sacrificed at 4.5 hours after irradiation using the same method as Example 3; mesentric lymph nodes were taken for isolating mononuclear cells; then isolated mononuclear cells were fixed at 3.7% formalin for 1 hour; and then anti-inflammatory-related T cells and macrophages were analyzed through FACS (BD FACSCalibur™: 343098, BD Biosciences, Canada) analysis.
Specifically, the mice were sacrificed at 4.5 hours after 8 Gy radiation; the abdomens were cut to open; mesentric lymph nodes and small intestines were taken and then were cut fine; then chopped by using operating scissors; then were treated with collagenase type I (Worthington, USA) and DNase I (Sigma, USA) at 37° C. for 20 minutes; washed, respectively; mononuclear cells were isolated; and then fixed in 3.7% formalin for 1 hour. The mesentric lymph nodes mononuclear cells fixed in formalin were double-stained with CD4 (130-091-608, Miltenyi Biotec, Germany) and FoxP3 (130-093-013, Miltenyi Biotec, Germany) antibody, and then regulatory T cells were analyzed through FACS analysis. In addition, an anti-inflammatory macrophage M2 analysis was performed through FACS analysis after double staining with CD11b (130-081-201, Miltenyi Biotec, Germany) and CD206 (ab64693, abcam, UK) antibody. Since T cells or macrophages in the small intestine mononuclear cells fixed in a formalin accounted for less than 1% of the whole cells, FACS analysis was performed after isolating CD3 (130-092-962, Miltenyi Biotec, Germany)+ cell and CD11b+ cell with MACS isolating method as disclosed in the previous Example 1-(2), respectively. Regulatory T cells were analyzed by double-staining the cells isolated by CD3 with CD4 and FoxP3 antibody and anti-inflammatory macrophage M2 analysis was performed by double-staining the cells isolated by CD11b with CD11b and CD206 antibody.

Substance-P (RPKPQQFFGLM; not fully specified; ends and bridges not checked; UniProt P20366 58-68, looked up)
number of HSC (HSC-CFU colonies) in blood [1]: increased at early stage and then decreased immediately three days after injection
leukocyte (White Blood Cell) in blood ([2]; FIG. 7A): decreased at least two times
mononuclear cell in blood ([2]; FIG. 7B): decreased at least two times
neutrophilic leukocyte in blood ([2]; FIG. 7C): decreased at least two times
decrease of eosinocyte in blood ([2]; FIG. 7D): 30-40%
inhibition of increase of IL-6 in serum (IL-6 and TNFα; 4.5 hours after irradiation, vs group without SP, FIG. 8A): about 30%
TNF α in serum (IL-6 and TNFα; one day after irradiation, FIG. 8): inhibited
amount of IL-10 in blood (IL-10; 4.5 hours after irradiation): increased by at least two times
amount of IL-10 in blood (IL-10; one day after irradiation): increased
anti-inflammatory macrophage M2 (CD11b+, CD206+) ([3]; mesentric lymph nodes, FIG. 10): increased
regulatory T cells (CD4+, FoxP3+) ([3]; mesentric lymph nodes, FIG. 10): increased
anti-inflammatory macrophage M2 (CD11b+, CD206+) ([3]; small intestines, FIG. 11): increased
regulatory T cells (CD4+, FoxP3+) ([3]; small intestines, FIG. 11): increased
